Reference: patent US20230139171A1 (SITA Information Networking Computing UK Limited, priority 2019, published 2023)

How the values were obtained:
Assay type in all cases: cell-based
human TLR7 = molecular target: T1, human TLR7 (Homo sapiens, UniProt Q9NYK1); assay: TLR7 inhibition reporter assay (HEK-Blue cells, SEAP reporter, gardiquimod stimulation); conditions: HEK-Blue cells overexpressing human TLR7, SEAP reporter, gardiquimod 7.5 μM; read-out: TLR7 IC50
T1 construct: host or cells: HEK-Blue cells
T1 sequence (Q9NYK1 27-1049): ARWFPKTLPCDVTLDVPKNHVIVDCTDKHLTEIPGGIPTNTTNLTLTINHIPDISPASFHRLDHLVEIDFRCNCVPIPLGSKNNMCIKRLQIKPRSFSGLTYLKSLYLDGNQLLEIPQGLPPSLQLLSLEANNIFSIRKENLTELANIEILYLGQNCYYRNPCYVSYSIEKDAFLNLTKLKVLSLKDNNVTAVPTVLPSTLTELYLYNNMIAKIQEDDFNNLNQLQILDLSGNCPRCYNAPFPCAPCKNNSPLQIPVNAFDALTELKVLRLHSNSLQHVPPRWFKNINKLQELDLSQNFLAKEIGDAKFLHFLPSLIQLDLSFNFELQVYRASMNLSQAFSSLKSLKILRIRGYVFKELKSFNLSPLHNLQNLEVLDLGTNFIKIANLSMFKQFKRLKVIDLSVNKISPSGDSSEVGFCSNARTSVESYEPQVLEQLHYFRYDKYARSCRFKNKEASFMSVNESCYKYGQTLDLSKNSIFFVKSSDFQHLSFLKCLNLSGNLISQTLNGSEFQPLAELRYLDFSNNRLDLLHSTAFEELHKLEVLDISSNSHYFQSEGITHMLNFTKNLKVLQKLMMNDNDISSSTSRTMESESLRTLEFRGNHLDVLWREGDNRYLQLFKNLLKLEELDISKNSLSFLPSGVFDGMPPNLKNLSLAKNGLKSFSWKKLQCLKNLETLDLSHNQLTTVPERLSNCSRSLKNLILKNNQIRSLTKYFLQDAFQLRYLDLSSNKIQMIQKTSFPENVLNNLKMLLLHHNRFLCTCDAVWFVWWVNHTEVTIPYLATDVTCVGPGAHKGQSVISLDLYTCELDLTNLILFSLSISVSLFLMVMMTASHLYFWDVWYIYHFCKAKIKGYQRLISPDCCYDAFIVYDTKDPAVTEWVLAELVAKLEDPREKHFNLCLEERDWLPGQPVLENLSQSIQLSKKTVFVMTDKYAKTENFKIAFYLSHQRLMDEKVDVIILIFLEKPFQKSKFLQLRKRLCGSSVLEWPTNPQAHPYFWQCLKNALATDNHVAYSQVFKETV
Procedure, shortened: (§1)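 HEK-Blue cells overexpressing human TLR7, TLR8 or TLR9 carry a SEAP reporter driven by NF-κB/AP-1 sites. Compounds (0.05 nM–50 μM) were preincubated 30 min at room temperature, then cells were stimulated with gardiquimod 7.5 μM (TLR7), R848 15.9 μM (TLR8) or ODN2006 5 nM (TLR9) for 22 h at 37 °C.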

human TLR8 = molecular target: T2, human TLR8 (Homo sapiens, UniProt Q9NR97); assay: TLR8 inhibition reporter assay (HEK-Blue cells, SEAP reporter, R848 stimulation); conditions: HEK-Blue cells overexpressing human TLR8, SEAP reporter, R848 15.9 μM; read-out: TLR8 IC50
T2 construct: host or cells: HEK-Blue cells
T2 sequence (Q9NR97 27-1041): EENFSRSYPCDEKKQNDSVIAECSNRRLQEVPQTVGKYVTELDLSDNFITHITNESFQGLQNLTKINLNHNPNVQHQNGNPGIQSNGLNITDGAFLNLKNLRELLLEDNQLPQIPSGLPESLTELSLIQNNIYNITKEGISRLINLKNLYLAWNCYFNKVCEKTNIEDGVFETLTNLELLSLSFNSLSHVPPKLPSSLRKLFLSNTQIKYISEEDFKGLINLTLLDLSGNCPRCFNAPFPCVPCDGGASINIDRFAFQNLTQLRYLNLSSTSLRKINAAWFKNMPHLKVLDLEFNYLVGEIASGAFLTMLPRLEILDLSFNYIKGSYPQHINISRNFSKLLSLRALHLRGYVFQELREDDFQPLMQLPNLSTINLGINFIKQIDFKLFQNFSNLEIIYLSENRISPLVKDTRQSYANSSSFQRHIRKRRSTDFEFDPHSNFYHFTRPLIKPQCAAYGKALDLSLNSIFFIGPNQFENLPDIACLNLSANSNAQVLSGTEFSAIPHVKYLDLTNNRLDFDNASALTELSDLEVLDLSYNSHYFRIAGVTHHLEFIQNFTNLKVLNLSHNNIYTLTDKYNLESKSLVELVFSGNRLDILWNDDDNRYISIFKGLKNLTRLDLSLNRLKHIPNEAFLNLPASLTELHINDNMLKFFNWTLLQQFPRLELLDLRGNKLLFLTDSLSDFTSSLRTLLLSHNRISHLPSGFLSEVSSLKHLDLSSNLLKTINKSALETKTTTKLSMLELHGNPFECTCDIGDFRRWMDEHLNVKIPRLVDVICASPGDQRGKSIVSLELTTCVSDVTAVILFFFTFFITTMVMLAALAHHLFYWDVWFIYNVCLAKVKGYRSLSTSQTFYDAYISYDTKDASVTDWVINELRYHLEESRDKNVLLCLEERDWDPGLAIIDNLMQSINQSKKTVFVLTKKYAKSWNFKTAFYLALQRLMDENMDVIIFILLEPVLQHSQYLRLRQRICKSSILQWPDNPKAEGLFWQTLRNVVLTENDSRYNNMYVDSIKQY
Procedure, shortened: as §1

human TLR9 = molecular target: T3, human TLR9 (Homo sapiens, UniProt Q9NR96); assay: TLR9 inhibition reporter assay (HEK-Blue cells, SEAP reporter, ODN2006 stimulation); conditions: HEK-Blue cells overexpressing human TLR9, SEAP reporter, ODN2006 5 nM
T3 construct: host or cells: HEK-Blue cells
T3 sequence (Q9NR96 26-1032): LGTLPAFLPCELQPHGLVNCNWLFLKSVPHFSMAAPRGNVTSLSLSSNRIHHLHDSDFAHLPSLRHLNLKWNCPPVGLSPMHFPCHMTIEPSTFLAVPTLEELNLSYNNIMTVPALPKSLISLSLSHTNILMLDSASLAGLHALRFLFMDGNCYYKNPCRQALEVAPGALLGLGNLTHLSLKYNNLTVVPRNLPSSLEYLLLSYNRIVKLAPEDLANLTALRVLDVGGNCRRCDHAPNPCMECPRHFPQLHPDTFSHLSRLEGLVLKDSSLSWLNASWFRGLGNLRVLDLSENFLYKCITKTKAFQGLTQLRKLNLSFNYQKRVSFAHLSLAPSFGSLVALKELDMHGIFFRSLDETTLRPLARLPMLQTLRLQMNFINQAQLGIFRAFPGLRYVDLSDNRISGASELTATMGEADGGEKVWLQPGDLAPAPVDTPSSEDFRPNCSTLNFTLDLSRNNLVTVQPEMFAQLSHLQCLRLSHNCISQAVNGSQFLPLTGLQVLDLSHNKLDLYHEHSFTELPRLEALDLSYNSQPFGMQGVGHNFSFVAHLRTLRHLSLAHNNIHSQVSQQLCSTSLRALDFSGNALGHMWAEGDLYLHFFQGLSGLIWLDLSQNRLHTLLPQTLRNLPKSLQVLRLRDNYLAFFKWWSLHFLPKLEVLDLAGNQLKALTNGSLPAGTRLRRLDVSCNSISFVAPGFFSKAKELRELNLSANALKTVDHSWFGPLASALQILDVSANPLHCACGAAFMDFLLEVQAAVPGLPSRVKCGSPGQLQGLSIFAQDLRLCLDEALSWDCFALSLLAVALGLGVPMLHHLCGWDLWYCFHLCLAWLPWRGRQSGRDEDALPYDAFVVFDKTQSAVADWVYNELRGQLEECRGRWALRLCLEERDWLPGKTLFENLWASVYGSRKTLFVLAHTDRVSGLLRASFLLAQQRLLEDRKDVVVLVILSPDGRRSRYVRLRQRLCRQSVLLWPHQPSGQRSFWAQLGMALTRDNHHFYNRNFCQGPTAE
Method: TLR7/8/9 Inhibition Reporter Assays
HEK-Blue™-cells (Invivogen) overexpressing human TLR7, TLR8 or TLR9 receptors were used for screening inhibitors of these receptors using an inducible SEAP (secreted embryonic alkaline phosphatase) reporter gene under the control of the IFN-β minimal promoter fused to five NF-κB and AP-1-binding sites. Briefly, cells are seeded into Greiner 384 well plates (15000 cells per well for TLR7, 20,000 for TLR8 and 25,000 for TLR9) and then treated with test compounds in DMSO to yield a final dose response concentration range of 0.05 nM-50 μM. After a 30 minute compound pre-treatment at room temperature, the cells are then stimulated with a TLR7 ligand (gardiquimod at a final concentration of 7.5 μM), TLR8 ligand (R848 at a final concentration of 15.9 μM) or TLR9 ligand (ODN2006 at a final concentration of 5 nM) to activate NF-κB and AP-1 which induce the production of SEAP. After a 22 hour incubation at 37° C., 5% CO2, SEAP levels are determined with the addition of HEK-Blue™ Detection reagent (Invivogen), a cell culture medium that allows for detection of SEAP, according to manufacturer's specifications. The percent inhibition is determined as the % reduction in the HEK-Blue signal present in wells treated with agonist plus DMSO alone compared to wells treated with a known inhibitor.

SMILES | IC50 (human TLR7) | IC50 (human TLR8) | IC50 (human TLR9)
Cc1c(-c2[nH]c3sc(C4CCC(NC5CCS(=O)(=O)C5)CC4)nc3c2C(C)C)cn2ncnc2c1C (racemic) [Example 230, 3-((4-(5-(7,8-dimethyl-[1,2,4]triazolo[1,5-a]pyridin-6-yl)-6-isopropyl-4H-pyrrolo[3,2-d]thiazol-2-yl)cyclohexyl)amino)tetrahydrothiophene 1,1-dioxide] | 4.92 nM | 1.5 nM | 43500 nM
COc1cc(-c2[nH]c3sc(C4CCC(NC5COC5)CC4)nc3c2C(C)C)cn2ncnc12 (single isomer, unassigned) [Example 66, N-(4-(6-isopropyl-5-(8-methoxy-[1,2,4]triazolo[1,5-a]pyridin-6-yl)-4H-pyrrolo[3,2-d]thiazol-2-yl)cyclohexyl)oxetan-3-amine] | 3.59 nM | 16.9 nM | 5710 nM
COc1cc(-c2[nH]c3sc(C4CCC(N5CC(CO)(CO)C5)CC4)nc3c2C(C)C)cn2ncnc12 (single isomer, unassigned) [Example 67, (1-(4-(6-isopropyl-5-(8-methoxy-[1,2,4]triazolo[1,5-a]pyridin-6-yl)-4H-pyrrolo[3,2-d]thiazol-2-yl)cyclohexyl)azetidine-3,3-diyl)dimethanol] | 12.6 nM | 12.9 nM | 2250 nM
COc1cc(-c2[nH]c3sc(C4CCC(N5CC6(COC6)C5)CC4)nc3c2C(C)C)cn2ncnc12 (single isomer, unassigned) [Example 68, 6-(4-(6-isopropyl-5-(8-methoxy-[1,2,4]triazolo[1,5-a]pyridin-6-yl)-4H-pyrrolo[3,2-d]thiazol-2-yl)cyclohexyl)-2-oxa-6-azaspiro[3.3]heptane] | 0.81 nM | 0.58 nM | 3500 nM
COc1cc(-c2[nH]c3sc(C4CCC(N5CC6(COC6)C5)CC4)nc3c2C(C)C)cn2ncnc12 (single isomer, unassigned) [Example 69, 6-(4-(6-isopropyl-5-(8-methoxy-[1,2,4]triazolo[1,5-a]pyridin-6-yl)-4H-pyrrolo[3,2-d]thiazol-2-yl)cyclohexyl)-2-oxa-6-azaspiro[3.3]heptane] | 4.17 nM | 35.6 nM | 6320 nM
COc1cc(-c2[nH]c3sc(C4CCC(NC5(C)COC5)CC4)nc3c2C(C)C)cn2ncnc12 (single isomer, unassigned) [Example 70, N-(4-(6-isopropyl-5-(8-methoxy-[1,2,4]triazolo[1,5-a]pyridin-6-yl)-4H-pyrrolo[3,2-d]thiazol-2-yl)cyclohexyl)-3-methyloxetan-3-amine] | 0.58 nM | 1.46 nM | 6610 nM
COc1cc(-c2[nH]c3sc(C4CCC(NC5(C)COC5)CC4)nc3c2C(C)C)cn2ncnc12 (single isomer, unassigned) [Example 71, N-(4-(6-isopropyl-5-(8-methoxy-[1,2,4]triazolo[1,5-a]pyridin-6-yl)-4H-pyrrolo[3,2-d]thiazol-2-yl)cyclohexyl)-3-methyloxetan-3-amine] | 6.92 nM | 19 nM | 5810 nM
COCCN1CCN(c2nc3c(C(C)C)c(-c4cc(C)c5ncnn5c4)[nH]c3s2)[C@H](C)C1 [Example 357, (R)-6-isopropyl-2-(4-(2-methoxyethyl)-2-methylpiperazin-1-yl)-5-(8-methyl-[1,2,4]triazolo[1,5-a]pyridin-6-yl)-4H-pyrrolo[3,2-d]thiazole] | 1280 nM |  | 38100 nM
Cc1cc(-c2[nH]c3sc(N4CCN(CC(C)C)C[C@H]4C)nc3c2C(C)C)cn2ncnc12 [Example 361, (R)-2-(4-isobutyl-2-methylpiperazin-1-yl)-6-isopropyl-5-(8-methyl-[1,2,4]triazolo[1,5-a]pyridin-6-yl)-4H-pyrrolo[3,2-d]thiazole] | 719 nM |  | 45600 nM
